Earlier results, collected in patent US20220175755A1, “METHODS OF TREATING TOBACCO SMOKING ADDICTION, AND TREATING NICOTINE AND TOBACCO SMOKING ADDICTION” (Pharma Unlimited B.V., priority 2017, published 2022).
Like-named read-outs stand apart in the source and are kept apart here.

Key:
[1] = transdermal patches
[2] = system: number of cigarettes smoked by tobacco smokers; conditions: aerosol with an inhaler, dose of 400 μg CBD dissolved in absolute ethanol≈5%
[3] = nicotine replacement therapy using chewing gum

SMILES	time after applying a patch at which blood nicotine levels start to rise [1]	blood concentration after stopping chewing the gum (chewing gum, 90 minutes after stopping chewing)	peak nicotine absorption rate (chewing tobacco)	time of peak nicotine absorption rate (chewing tobacco) [min]	peak blood concentration [3]	peak nicotine absorption rate [3]	time for nicotine absorption rate to decline to zero [3]	time of peak nicotine absorption rate [3] [min]	time to peak blood concentration [3]	peak blood concentration (smoking cigarettes)	peak nicotine absorption rate (smoking cigarettes)	time of peak nicotine absorption rate (smoking cigarettes)	time to peak blood concentration (smoking cigarettes)	time for blood concentration to fall to 70% of the peak value (smoking cigarettes, after finishing smoking)	reduction of the number of cigarettes smoked [2] [%]
CN1CCC[C@H]1c1cccnc1 [nicotine, 3-[(2S)-1-methylpyrrolidine-2-yl]pyridine]	about 30 minutes	about 7 ng/ml	around 145 μg/min	5	less than 9 ng/ml	around 65 μg/min	about 90 minutes	10	about 30 minutes	around 15 ng/ml	around 200 μg/min	about 5 minutes	about 10 minutes	about 20 minutes	
C=C(C)[C@@H]1CCC(C)=C[C@H]1c1c(O)cc(CCCCC)cc1O [CBD]															40
